Measurements as given in US9822099B2, “Triazole derivatives” (priority 2013, dated 2017).
Marks after values point to notes of the source that are not given here.

test system: Leptosphaeria nodorum; assay: Example K: Leptosphaeria nodorum test (wheat)/preventive; type: in vivo; settings: 500 ppm of active ingredient, preventive, evaluated 8 days after inoculation
Protocol: Solvent: 49 parts by weight of N,N-dimethylacetamide Emulsifier: 1 part by weight of alkylaryl polyglycol ether To produce a suitable preparation of active compound, 1 part by weight of active compound or active compound combination is mixed with the stated amounts of solvent and emulsifier, and the concentrate is diluted with water to the desired concentration. To test for preventive activity, young plants are sprayed with the preparation of active compound or active compound combination at the stated rate of application. After the spray coating has been dried, the plants are sprayed with a spore suspension of Leptosphaeria nodorum.

SMILES	Eff. % [%]
OC(Cc1cc(Cl)ncc1F)(Cn1cncn1)C1(Cl)CC1 (stereo not shown) [Example I-40]	100
OC(Cc1cc(Cl)nnc1Cl)(Cn1cncn1)C1(Cl)CC1 (stereo not shown) [Example I-46]	83
OC(Cc1cc(Cl)ncc1Cl)(Cn1cncn1)C1(Cl)CC1 (stereo not shown) [Example I-58]	93

test system: Blumeria graminis f. sp. hordei; assay: Example G: Blumeria test (barley)/preventive; type: in vivo; settings: 500 ppm of active ingredient, preventive, evaluated 7 days after inoculation
Protocol: Solvent: 49 parts by weight of N,N-dimethylacetamide Emulsifier: 1 part by weight of alkylaryl polyglycol ether To produce a suitable preparation of active compound, 1 part by weight of active compound or active compound combination is mixed with the stated amounts of solvent and emulsifier, and the concentrate is diluted with water to the desired concentration. To test for preventive activity, young plants are sprayed with the preparation of active compound or active compound combination at the stated rate of application. After the spray coating has been dried, the plants are dusted with spores of Blumeria graminis f. sp. hordei.

SMILES	Eff. % [%]
OC(Cc1nccnc1Br)(Cn1cncn1)C1(Cl)CC1 (racemic) [Example I-71]	100
OC(Cc1ccncc1Cl)(Cn1cncn1)C1CCC1 (racemic) [Example I-77]	100
OC(Cc1ccnc2ccccc12)(Cn1cncn1)C1(Cl)CC1 (stereo not shown) [Example I-27]	100
CC(CF)(CF)C(O)(Cc1ccnc(Cl)c1)Cn1cncn1 (stereo not shown) [Example I-36]	100
OC(Cc1cc(Cl)ncc1F)(Cn1cncn1)C1(Cl)CC1 (stereo not shown) [Example I-40]	100
OC(Cc1cc(Cl)ncc1Cl)(Cn1cncn1)C1(Cl)CC1 (stereo not shown) [Example I-58]	100

test system: Pyrenophora teres; assay: Example C: in vivo preventive test on Pyrenophora teres (net blotch on barley); settings: 500 ppm of active ingredient; barley plants, preventive spray; evaluated 14 days after inoculation
Protocol: (§1) The young plants of barley are treated by spraying the active ingredient prepared as described above. Control plants are treated only with an aqueous solution of acetone/Dimethyl sulfoxide/Tween®. After 24 hours, the plants are contaminated by spraying the leaves with an aqueous suspension of Pyrenophora teres spores.

SMILES	Eff. % [%]
OC(Cc1nccnc1Br)(Cn1cncn1)C1(Cl)CC1 (racemic) [Example I-71]	79
OC(Cc1ccncc1Cl)(Cn1cncn1)C1CCC1 (racemic) [Example I-77]	86
CC(CF)(CF)C(O)(Cc1ccnc(Cl)c1)Cn1cncn1 (stereo not shown) [Example I-36]	88
OC(Cc1cc(Cl)ncc1F)(Cn1cncn1)C1(Cl)CC1 (stereo not shown) [Example I-40]	100
OC(Cc1cc(Cl)ncc1Cl)(Cn1cncn1)C1(Cl)CC1 (stereo not shown) [Example I-58]	95

test system: Phakopsora pachyrhizi; assay: Example L: Phakopsora test (soybeans)/preventive; type: in vivo; settings: 10 ppm of active ingredient, preventive, evaluated 7 days after inoculation

SMILES	Eff. % [%]
OC(Cc1nccnc1Cl)(Cn1cncn1)C1(Cl)CC1 (stereo not shown) [Example I-30]	75
OC(Cc1cc(Cl)ncc1F)(Cn1cncn1)C1(Cl)CC1 (stereo not shown) [Example I-40]	73
OC(Cc1cc(Cl)ncc1Cl)(Cn1cncn1)C1(Cl)CC1 (stereo not shown) [Example I-58]	89

same assay, conditions: 100 ppm of active ingredient, preventive, evaluated 7 days after inoculation

SMILES	Eff. % [%]
OC(Cc1ccncc1Cl)(Cn1cncn1)C1CCC1 (racemic) [Example I-77]	100

test system: Pyricularia oryzae; assay: not given; type: in vivo; settings: 500 ppm of active ingredient; rice, preventive; evaluated 8 days after inoculation

SMILES	Eff. % [%]
OC(Cc1nccnc1Br)(Cn1cncn1)C1(Cl)CC1 (racemic) [Example I-71]	80
OC(Cc1ccncc1Cl)(Cn1cncn1)C1CCC1 (racemic) [Example I-77]	86
OC(Cc1ccnc2ccccc12)(Cn1cncn1)C1(Cl)CC1 (stereo not shown) [Example I-27]	89
OC(Cc1cc(Cl)nnc1Cl)(Cn1cncn1)C1(Cl)CC1 (stereo not shown) [Example I-46]	78
OC(Cc1cc(Cl)ncc1Cl)(Cn1cncn1)C1(Cl)CC1 (stereo not shown) [Example I-58]	100

test system: Puccinia recondita; assay: Example B: in vivo preventive test on Puccinia recondita (brown rust on wheat); settings: 100 ppm of active ingredient; wheat plants, preventive spray; evaluated 11 days after inoculation
Protocol: as §1, with “wheat” for “barley”, “Puccinia recondita” for “Pyrenophora teres”

SMILES	Eff. % [%]
OC(Cc1cc(Cl)nnc1Cl)(Cn1cncn1)C1(Cl)CC1 (stereo not shown) [Example I-46]	88

same assay, conditions: 500 ppm of active ingredient; wheat plants, preventive spray; evaluated 11 days after inoculation

SMILES	Eff. % [%]
OC(Cc1nccnc1Br)(Cn1cncn1)C1(Cl)CC1 (racemic) [Example I-71]	94
OC(Cc1ccncc1Cl)(Cn1cncn1)C1CCC1 (racemic) [Example I-77]	98
CC(CF)(CF)C(O)(Cc1ccnc(Cl)c1)Cn1cncn1 (stereo not shown) [Example I-36]	97
OC(Cc1cc(Cl)ncc1F)(Cn1cncn1)C1(Cl)CC1 (stereo not shown) [Example I-40]	97
OC(Cc1cc(Cl)ncc1Cl)(Cn1cncn1)C1(Cl)CC1 (stereo not shown) [Example I-58]	97

test system: Fusarium nivale (var. majus); assay: Example J: Fusarium nivale (var. majus)-test (wheat)/preventive; type: in vivo; settings: 500 ppm of active ingredient, preventive, evaluated 5 days after inoculation
Protocol: Solvent: 49 parts by weight of N,N-dimethylacetamide
Emulsifier: 1 part by weight of alkylaryl polyglycol ether
To produce a suitable preparation of active compound, 1 part by weight of active compound or active compound combination is mixed with the stated amounts of solvent and emulsifier, and the concentrate is diluted with water to the desired concentration.
To test for preventive activity, young plants are sprayed with the preparation of active compound or active compound combination at the stated rate of application.
After the spray coating has been dried, the plants are slightly injured by using a sandblast and afterwards they are sprayed with a conidia suspension of Fusarium nivale (var. majus).
The plants are placed in the greenhouse under a translucent incubation cabinet at a temperature of approximately 10° C. and a relative atmospheric humidity of approximately 100%.
The test is evaluated 5 days after the inoculation. 0% means an efficacy which corresponds to that of the untreated control, while an efficacy of 100% means that no disease is observed.

SMILES	Eff. % [%]
OC(Cc1nccnc1Br)(Cn1cncn1)C1(Cl)CC1 (racemic) [Example I-71]	94
OC(Cc1ccncc1Cl)(Cn1cncn1)C1CCC1 (racemic) [Example I-77]	83
OC(Cc1ccnc2ccccc12)(Cn1cncn1)C1(Cl)CC1 (stereo not shown) [Example I-27]	93
OC(Cc1cc(Cl)ncc1F)(Cn1cncn1)C1(Cl)CC1 (stereo not shown) [Example I-40]	86
OC(Cc1cc(Cl)nnc1Cl)(Cn1cncn1)C1(Cl)CC1 (stereo not shown) [Example I-46]	100
OC(Cc1cc(Cl)ncc1Cl)(Cn1cncn1)C1(Cl)CC1 (stereo not shown) [Example I-58]	100

test system: Sphaerotheca fuliginea; assay: Example E: in vivo preventive test on Sphaerotheca fuliginea (powdery mildew on cucurbits); settings: 100 ppm of active ingredient; gherkin plants, preventive spray; evaluated 15 days after inoculation
Protocol: as §1, with “gherkin” for “barley”, “Sphaerotheca fuliginea” for “Pyrenophora teres”

SMILES	Eff. % [%]
OC(Cc1ccnc2ccccc12)(Cn1cncn1)C1(Cl)CC1 (stereo not shown) [Example I-27]	100
OC(Cc1nccnc1Cl)(Cn1cncn1)C1(Cl)CC1 (stereo not shown) [Example I-30]	94
OC(Cc1cc(Cl)nnc1Cl)(Cn1cncn1)C1(Cl)CC1 (stereo not shown) [Example I-46]	100

same assay, conditions: 500 ppm of active ingredient; gherkin plants, preventive spray; evaluated 15 days after inoculation

SMILES	Eff. % [%]
OC(Cc1nccnc1Br)(Cn1cncn1)C1(Cl)CC1 (racemic) [Example I-71]	100
OC(Cc1ccncc1Cl)(Cn1cncn1)C1CCC1 (racemic) [Example I-77]	100
CC(CF)(CF)C(O)(Cc1ccnc(Cl)c1)Cn1cncn1 (stereo not shown) [Example I-36]	100
OC(Cc1cc(Cl)ncc1F)(Cn1cncn1)C1(Cl)CC1 (stereo not shown) [Example I-40]	100
OC(Cc1cc(Cl)ncc1Cl)(Cn1cncn1)C1(Cl)CC1 (stereo not shown) [Example I-58]	100

test system: Fusarium graminearum; assay: not given; type: in vivo; settings: 500 ppm of active ingredient; barley, preventive; evaluated 5 days after inoculation

SMILES	Eff. % [%]
OC(Cc1nccnc1Br)(Cn1cncn1)C1(Cl)CC1 (racemic) [Example I-71]	100
OC(Cc1ccncc1Cl)(Cn1cncn1)C1CCC1 (racemic) [Example I-77]	86
OC(Cc1ccnc2ccccc12)(Cn1cncn1)C1(Cl)CC1 (stereo not shown) [Example I-27]	100
CC(CF)(CF)C(O)(Cc1ccnc(Cl)c1)Cn1cncn1 (stereo not shown) [Example I-36]	94
OC(Cc1cc(Cl)ncc1F)(Cn1cncn1)C1(Cl)CC1 (stereo not shown) [Example I-40]	100
OC(Cc1cc(Cl)nnc1Cl)(Cn1cncn1)C1(Cl)CC1 (stereo not shown) [Example I-46]	92
OC(Cc1cc(Cl)ncc1Cl)(Cn1cncn1)C1(Cl)CC1 (stereo not shown) [Example I-58]	100

test system: Uromyces appendiculatus; assay: Example F: in vivo preventive test on Uromyces appendiculatus (bean rust); settings: 100 ppm of active ingredient; bean plants, preventive spray; evaluated 11 days after inoculation
Protocol: as §1, with “bean” for “barley”, “Uromyces appendiculatus” for “Pyrenophora teres”

SMILES	Eff. % [%]
OC(Cc1ccnc2ccccc12)(Cn1cncn1)C1(Cl)CC1 (stereo not shown) [Example I-27]	98
OC(Cc1nccnc1Cl)(Cn1cncn1)C1(Cl)CC1 (stereo not shown) [Example I-30]	100

same assay, conditions: 500 ppm of active ingredient; bean plants, preventive spray; evaluated 11 days after inoculation

SMILES	Eff. % [%]
OC(Cc1nccnc1Br)(Cn1cncn1)C1(Cl)CC1 (racemic) [Example I-71]	99
OC(Cc1ccncc1Cl)(Cn1cncn1)C1CCC1 (racemic) [Example I-77]	100
CC(CF)(CF)C(O)(Cc1ccnc(Cl)c1)Cn1cncn1 (stereo not shown) [Example I-36]	100
OC(Cc1cc(Cl)ncc1F)(Cn1cncn1)C1(Cl)CC1 (stereo not shown) [Example I-40]	100
OC(Cc1cc(Cl)ncc1Cl)(Cn1cncn1)C1(Cl)CC1 (stereo not shown) [Example I-58]	100

test system: not given; assay: not given; settings: pH 2.7

SMILES	LogP
OC(Cc1nccnc1Br)(Cn1cncn1)C1(Cl)CC1 (racemic) [Example I-71]	1.96^[a]
OC(Cc1ccncc1Cl)(Cn1cncn1)C1CCC1 (racemic) [Example I-77]	1.46^[a]
OC(Cc1ccnc2ccccc12)(Cn1cncn1)C1(Cl)CC1 (stereo not shown) [Example I-27]	1.00^[a]
OC(Cc1nccnc1Cl)(Cn1cncn1)C1(Cl)CC1 (stereo not shown) [Example I-30]	1.86^[a]
CC(CF)(CF)C(O)(Cc1ccnc(Cl)c1)Cn1cncn1 (stereo not shown) [Example I-36]	1.66^[a]
OC(Cc1cc(Cl)ncc1F)(Cn1cncn1)C1(Cl)CC1 (stereo not shown) [Example I-40]	2.06^[a]
OC(Cc1cc(Cl)nnc1Cl)(Cn1cncn1)C1(Cl)CC1 (stereo not shown) [Example I-46]	1.92^[a]
OC(Cc1cc(Cl)ncc1Cl)(Cn1cncn1)C1(Cl)CC1 (stereo not shown) [Example I-58]	2.53^[a]

test system: Septoria tritici; assay: Example D: in vivo preventive test on Septoria tritici (leaf spot on wheat); settings: 100 ppm of active ingredient; wheat plants, preventive spray; evaluated 24 days after inoculation
Protocol: as §1, with “wheat” for “barley”, “Septoria tritici” for “Pyrenophora teres”

SMILES	Eff. % [%]
OC(Cc1cc(Cl)nnc1Cl)(Cn1cncn1)C1(Cl)CC1 (stereo not shown) [Example I-46]	100

same assay, conditions: 500 ppm of active ingredient; wheat plants, preventive spray; evaluated 24 days after inoculation

SMILES	Eff. % [%]
OC(Cc1nccnc1Br)(Cn1cncn1)C1(Cl)CC1 (racemic) [Example I-71]	100
OC(Cc1ccncc1Cl)(Cn1cncn1)C1CCC1 (racemic) [Example I-77]	100
CC(CF)(CF)C(O)(Cc1ccnc(Cl)c1)Cn1cncn1 (stereo not shown) [Example I-36]	100
OC(Cc1cc(Cl)ncc1F)(Cn1cncn1)C1(Cl)CC1 (stereo not shown) [Example I-40]	100
OC(Cc1cc(Cl)ncc1Cl)(Cn1cncn1)C1(Cl)CC1 (stereo not shown) [Example I-58]	100

test system: Botrytis cinerea; assay: Example A: in vivo preventive test on Botrytis cinerea (grey mould); settings: 100 ppm of active ingredient; gherkin plants, preventive spray; evaluated 4 to 5 days after inoculation
Protocol: as §1, with “gherkin” for “barley”, “Botrytis cinerea” for “Pyrenophora teres”

SMILES	Eff. % [%]
OC(Cc1ccnc2ccccc12)(Cn1cncn1)C1(Cl)CC1 (stereo not shown) [Example I-27]	98

same assay, conditions: 500 ppm of active ingredient; gherkin plants, preventive spray; evaluated 4 to 5 days after inoculation

SMILES	Eff. % [%]
OC(Cc1nccnc1Br)(Cn1cncn1)C1(Cl)CC1 (racemic) [Example I-71]	100
OC(Cc1ccncc1Cl)(Cn1cncn1)C1CCC1 (racemic) [Example I-77]	100
OC(Cc1cc(Cl)ncc1F)(Cn1cncn1)C1(Cl)CC1 (stereo not shown) [Example I-40]	97
OC(Cc1cc(Cl)ncc1Cl)(Cn1cncn1)C1(Cl)CC1 (stereo not shown) [Example I-58]	98
